In patent US12060368B2, “Selenophenochromene hydroxamic acids, preparation and use as angiogenesis inhibitors” (Latvian Institute of Organic Synthesis, priority 2018, dated 2024):
Where a name gives a salt, the structure may show the parent alone.

How the values were obtained:
MMP 2 = target: T1, MMP 2 (Homo sapiens, UniProt P08253); assay: MMP Inhibitor Fluorimetric Profiling kit, MMP 2; type: biochemical; settings: for IC50: read-out: MMP 2 inhibition IC50; for inhibition at 20 µM: test compound 20 μM
T1 construct: recombinant human MMP-1-10, 12, 13 and 14 catalytic domains; purchased Biornol, USA
Protocol: (§1) Inhibition of matrix metalloproteinase enzymes by synthesized selenopheno[3,2-h]chromenes I-1-I-4 was detected on MMP Inhibitor Fluorimetric Profiling kit using NNGH (N-isobutyl-N-4-methoxyphenylsulfonyl)glycyl-hydroxamic acid) as a standard.
(§2) MMP assay: Inhibitors of matrix metalloproteinase enzymes were detected with the use of MMP Inhibitor Fluorimetric Profiling kit (Biornol, USA) accordingly to manufacturer's instructions. MMP activity assays were performed in 96-well plates using the recombinant human MMP-1-10, 12, 13 and 14 catalytic domains and OmniMMP™ fluorogenic substrate SEQ ID No 1: Mca-Pro-Leu-Gly-Leu-Dpa-Ala-Arg-NH2. The test compounds (20 μM) were dissolved in DMSO. The compound NNGH (N-isobutyl-N-(4-methoxyphenylsulfonyl)-glycylhydroxamic acid) was used as a prototypic control inhibitor. The rate of substrate hydrolysis was determined by fluorescence intensity measuring for 10 minutes at 37° C. temperature using a fluorescence plate reader (Tecan infinite M1000, Austria) with excitation at 328 nm and emission at 420 nm. Data analysis was performed using program Graph Pad Prism® 3.0.

MMP 14 = target: T2, MMP 14 (Homo sapiens, UniProt P50281); assay: MMP Inhibitor Fluorimetric Profiling kit, MMP 14; type: biochemical; settings: for IC50: read-out: MMP 14 inhibition IC50; for inhibition at 20 µM: test compound 20 μM
T2 construct: recombinant human MMP-1-10, 12, 13 and 14 catalytic domains; purchased Biornol, USA
Protocol: as §1, §2

MMP 10 (stromelysin 2) = target: T3, MMP 10 (stromelysin 2) (Homo sapiens, UniProt P09238); assay: MMP Inhibitor Fluorimetric Profiling kit, MMP 10; type: biochemical; settings: for IC50: read-out: MMP 10 inhibition IC50; for inhibition at 20 µM: test compound 20 μM
T3 construct: recombinant human MMP-1-10, 12, 13 and 14 catalytic domains; purchased Biornol, USA
Protocol: as §1, §2

MMP 3 = target: T4, MMP 3 (Homo sapiens, UniProt P08254); assay: MMP Inhibitor Fluorimetric Profiling kit, MMP 3; type: biochemical; settings: for IC50: ne = no effect, read-out: MMP 3 inhibition IC50; for inhibition at 20 µM: test compound 20 μM
T4 construct: recombinant human MMP-1-10, 12, 13 and 14 catalytic domains; purchased Biornol, USA
Protocol: as §1, §2

MMP 8 = target: T5, MMP 8 (Homo sapiens, UniProt P22894); assay: MMP Inhibitor Fluorimetric Profiling kit, MMP 8; type: biochemical; settings: for IC50: read-out: MMP 8 inhibition IC50; for inhibition at 20 µM: test compound 20 μM
T5 construct: recombinant human MMP-1-10, 12, 13 and 14 catalytic domains; purchased Biornol, USA
Protocol: as §1, §2

MMP 1 = target: T6, MMP 1 (Homo sapiens, UniProt P03956); assay: MMP Inhibitor Fluorimetric Profiling kit, MMP 1; type: biochemical; settings: for IC50: read-out: MMP 1 inhibition IC50; for inhibition at 20 µM: test compound 20 μM
T6 construct: recombinant human MMP-1-10, 12, 13 and 14 catalytic domains; purchased Biornol, USA
T6 sequence (P03956 98-276 limits assumed): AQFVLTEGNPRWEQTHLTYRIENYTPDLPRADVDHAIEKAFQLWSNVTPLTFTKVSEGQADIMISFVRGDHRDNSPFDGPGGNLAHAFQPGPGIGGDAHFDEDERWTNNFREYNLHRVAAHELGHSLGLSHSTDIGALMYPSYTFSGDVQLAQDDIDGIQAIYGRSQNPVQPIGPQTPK
Protocol: as §1, §2

MMP 13 = target: T7, MMP 13 (Homo sapiens, UniProt P45452); assay: MMP Inhibitor Fluorimetric Profiling kit, MMP 13; type: biochemical; settings: for IC50 / MMP 13 inhibition IC50: ne = no effect; for IC50: read-out: MMP 13 inhibition IC50; for inhibition at 20 µM: test compound 20 μM
T7 construct: recombinant human MMP-1-10, 12, 13 and 14 catalytic domains; purchased Biornol, USA
Protocol: as §1, §2

MMP 9 = target: T8, MMP 9 (Homo sapiens, UniProt P14780); assay: MMP Inhibitor Fluorimetric Profiling kit, MMP 9; type: biochemical; settings: for IC50: read-out: MMP 9 inhibition IC50; for inhibition at 20 µM: test compound 20 μM
T8 construct: recombinant human MMP-1-10, 12, 13 and 14 catalytic domains; purchased Biornol, USA
Protocol: as §1, §2

MMP 12 = target: T9, MMP 12 (Homo sapiens, UniProt P39900); assay: MMP Inhibitor Fluorimetric Profiling kit, MMP 12; type: biochemical; settings: for MMP 12 inhibition IC50: ne = no effect; for inhibition at 20 µM: test compound 20 μM
T9 construct: recombinant human MMP-1-10, 12, 13 and 14 catalytic domains; purchased Biornol, USA
Protocol: as §1, §2

MMP 7 = target: T10, MMP 7 (Homo sapiens, UniProt P09237); assay: MMP Inhibitor Fluorimetric Profiling kit, MMP 7; type: biochemical; settings: for inhibition at 20 µM: test compound 20 μM
T10 construct: recombinant human MMP-1-10, 12, 13 and 14 catalytic domains; purchased Biornol, USA
T10 sequence (P09237 95-267): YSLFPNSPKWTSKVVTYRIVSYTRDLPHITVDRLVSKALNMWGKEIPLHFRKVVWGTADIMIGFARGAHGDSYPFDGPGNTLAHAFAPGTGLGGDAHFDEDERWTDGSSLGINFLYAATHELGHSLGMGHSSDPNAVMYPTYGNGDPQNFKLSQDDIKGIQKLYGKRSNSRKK
Protocol: as §1, §2

T8 sequence (P14780 107-444 limits assumed): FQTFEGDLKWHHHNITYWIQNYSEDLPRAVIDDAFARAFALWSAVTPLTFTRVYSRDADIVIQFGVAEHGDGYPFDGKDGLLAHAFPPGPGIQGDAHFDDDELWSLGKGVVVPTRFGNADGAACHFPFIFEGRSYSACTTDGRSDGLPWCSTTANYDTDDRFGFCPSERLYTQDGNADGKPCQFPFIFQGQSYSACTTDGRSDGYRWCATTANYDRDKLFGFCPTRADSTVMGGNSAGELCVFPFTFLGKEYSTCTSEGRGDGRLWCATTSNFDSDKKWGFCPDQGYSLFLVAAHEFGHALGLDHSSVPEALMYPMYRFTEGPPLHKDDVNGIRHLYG
T9 sequence (P39900 106-263 limits assumed): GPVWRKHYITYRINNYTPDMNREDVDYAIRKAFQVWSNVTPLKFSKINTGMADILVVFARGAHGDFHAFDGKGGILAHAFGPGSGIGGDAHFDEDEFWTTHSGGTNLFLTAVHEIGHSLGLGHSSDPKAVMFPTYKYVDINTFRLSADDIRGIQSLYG
T1 sequence (P08253 110-446 limits assumed): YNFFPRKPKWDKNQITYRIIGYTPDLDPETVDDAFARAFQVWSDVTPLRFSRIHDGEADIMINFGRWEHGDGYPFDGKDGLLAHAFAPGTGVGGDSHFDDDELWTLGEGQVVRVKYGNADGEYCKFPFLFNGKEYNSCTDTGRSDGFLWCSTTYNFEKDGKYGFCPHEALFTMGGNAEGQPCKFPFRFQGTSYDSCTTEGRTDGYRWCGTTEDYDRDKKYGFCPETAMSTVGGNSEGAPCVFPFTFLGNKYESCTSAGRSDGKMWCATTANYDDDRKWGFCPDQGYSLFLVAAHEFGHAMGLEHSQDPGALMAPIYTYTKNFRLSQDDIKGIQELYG
T3 sequence (P09238 99-263 limits assumed): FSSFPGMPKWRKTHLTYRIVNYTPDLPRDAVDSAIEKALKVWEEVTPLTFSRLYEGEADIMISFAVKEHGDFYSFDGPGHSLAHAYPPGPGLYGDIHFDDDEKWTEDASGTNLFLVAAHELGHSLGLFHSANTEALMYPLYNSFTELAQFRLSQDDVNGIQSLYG
T5 sequence (P22894 100-262 limits assumed): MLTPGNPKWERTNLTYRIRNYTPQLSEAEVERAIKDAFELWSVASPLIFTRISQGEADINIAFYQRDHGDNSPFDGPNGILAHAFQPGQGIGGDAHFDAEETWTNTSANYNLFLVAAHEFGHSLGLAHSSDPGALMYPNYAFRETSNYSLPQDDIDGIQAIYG
T4 sequence (P08254 100-272 limits assumed): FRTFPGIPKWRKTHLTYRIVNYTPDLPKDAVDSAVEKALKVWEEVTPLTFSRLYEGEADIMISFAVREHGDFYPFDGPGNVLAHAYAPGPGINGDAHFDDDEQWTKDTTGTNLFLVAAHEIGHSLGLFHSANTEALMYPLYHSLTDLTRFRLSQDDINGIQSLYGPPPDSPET

Row | SMILES | IC50 (MMP 2; ne = no effect) [µM] | inhibition at 20 µM (MMP 2) [%] | IC50 (MMP 14; ne = no effect) [µM] | inhibition at 20 µM (MMP 14) [%] | IC50 (MMP 10 (stromelysin 2); ne = no effect) [µM] | inhibition at 20 µM (MMP 10 (stromelysin 2)) [%] | IC50 (MMP 3) [µM] | inhibition at 20 µM (MMP 3) [%] | IC50 (MMP 8; ne = no effect) [µM] | inhibition at 20 µM (MMP 8) [%] | IC50 (MMP 1; ne = no effect) [µM] | inhibition at 20 µM (MMP 1) [%] | IC50 (MMP 13) [µM] | inhibition at 20 µM (MMP 13) [%] | IC50 (MMP 9; ne = no effect) [µM] | inhibition at 20 µM (MMP 9) [%] | MMP 12 inhibition IC50 (MMP 12) | inhibition at 20 µM (MMP 12) [%] | MMP 7 inhibition IC50 (MMP 7; ne = no effect) | inhibition at 20 µM (MMP 7) [%] | other results
1 | COc1ccc(S(=O)(=O)N(CC(=O)NO)CC(C)C)cc1 [NNGH, N-isobutyl-N-(4-methoxyphenylsulfonyl)-glycylhydroxamic acid, reference compound] | – | – | – | – | – | – | – | – | – | – | – | – | – | – | – | – | – | – | – | – | MMP 2 inhibition (MMP 2; control inhibitor 1.3 μM): 100%; MMP 14 inhibition (MMP 14; control inhibitor 1.3 μM): 100%; MMP 10 inhibition (MMP 10 (stromelysin 2); control inhibitor 1.3 μM): 100%; MMP 3 inhibition (MMP 3; control inhibitor 1.3 μM): 100%; MMP 8 inhibition (MMP 8; control inhibitor 1.3 μM): 100%; MMP 1 inhibition (MMP 1; control inhibitor 1.3 μM): 100%; MMP 13 inhibition (MMP 13; control inhibitor 1.3 μM): 100%; MMP 9 inhibition (MMP 9; control inhibitor 1.3 μM): 100%; MMP 12 inhibition (MMP 12; control inhibitor 1.3 μM): 100%; MMP 7 inhibition (MMP 7; control inhibitor 1.3 μM): 7.2%
2 | O=C(NO)c1cc2ccc3c(Br)c(CN4CCCNCC4)[se]c3c2oc1=O [Compound I-4, 8-((1,4-Diazepan-1-yl)methyl)-7-bromo-N-hydroxy-2-oxo-2H-selenopheno[3,2-h]chromene-3-carboxamide hydrochloride] | 1.86 ± 0.21 | 99 ± 6 | 4.04 ± 0.97 | 99 ± 7 | 1.71 ± 0.18 | 99 ± 8 | > 20 | 34 ± 8 | 1.86 ± 0.22 | 100 ± 9 | 5.21 ± 0.62 | 99 ± 8 | 4.74 ± 0.95 | 95 ± 8 | 1.92 ± 0.31 | 99 ± 6 | ne | 7 ± 3 | ne | 16 ± 3 | –
3 | O=C(NO)c1cc2ccc3c(Br)c(CN4CCNCC4)[se]c3c2oc1=O [Compound I-2, 7-Bromo-N-hydroxy-2-oxo-8-(piperazin-1-ylmethyl)-2H-selenopheno[3,2-h]chromene-3-carboxamide hydrochloride] | 1.57 ± 0.18 | 98 ± 1 | 4.35 ± 1.02 | 98 ± 2 | 1.37 ± 0.85 | 99 | > 20 | 31 ± 7 | 1.64 ± 0.25 | 100 ± 1 | 5.93 ± 0.54 | 94 ± 1 | 6.27 ± 0.65 | 98 ± 1 | 1.48 ± 0.11 | 100 ± 1 | ne | 5 ± 1 | ne | 20 ± 1 | MMP 2 inhibition IC50 (MMP 2; ne = no effect): 1.37+6.27 μM; MMP 14 inhibition IC50 (MMP 14; ne = no effect): 1.37+6.27 μM; MMP 10 inhibition IC50 (MMP 10 (stromelysin 2); ne = no effect): 1.37+6.27 μM; MMP 8 inhibition IC50 (MMP 8; ne = no effect): 1.37+6.27 μM; MMP 1 inhibition IC50 (MMP 1; ne = no effect): 1.37+6.27 μM; MMP 13 inhibition IC50 (MMP 13): 1.37+6.27 μM; MMP 9 inhibition IC50 (MMP 9; ne = no effect): 1.37+6.27 μM
4 | CN1CCN(Cc2[se]c3c(ccc4cc(C(=O)NO)c(=O)oc43)c2Br)CC1 (as salt: hydrochloride) [Compound I-1, 7-Bromo-N-hydroxy-8-((4-methylpiperazin-1-yl)methyl)-2-oxo-2H-selenopheno[3,2-h]chromene-3-carboxamide hydrochloride] | – | – | – | – | – | – | – | – | – | – | – | – | – | – | – | – | – | – | – | – | melting point: > 200 °C
5 | O=C(NO)c1cc2ccc3c(Br)c(CN4CCNCC4)[se]c3c2oc1=O (as salt: hydrochloride) [Compound I-2, 7-Bromo-N-hydroxy-2-oxo-8-(piperazin-1-ylmethyl)-2H-selenopheno[3,2-h]chromene-3-carboxamide hydrochloride] | – | – | – | – | – | – | – | – | – | – | – | – | – | – | – | – | – | – | – | – | melting point: > 200 °C
6 | CN1CCN(Cc2[se]c3c(ccc4cc(C(=O)NO)c(=O)oc43)c2Br)CC1 [Compound I-1, 7-Bromo-N-hydroxy-8-((4-methylpiperazin-1-yl)methyl)-2-oxo-2H-selenopheno[3,2-h]chromene-3-carboxamide hydrochloride] | 20 | 51 ± 2 | 18 ± 2 | 58 ± 2 | 1.92 | ≤ 97 | > 20 | 34 ± 2 | 20 | 56 ± 2 | > 20 | 29 ± 2 | – | 0 | > 20 | 35 ± 5 | ne | 0 | – | 28 ± 2 | MMP 13 inhibition IC50 (MMP 13): ne; IC50 (MMP 7; ne = no effect, read-out: MMP 7 inhibition IC50): > 20 µM
7 | O=C(NO)c1cc2ccc3c(Br)c(CCN4CCNCC4)[se]c3c2oc1=O (as salt: hydrochloride) [Compound I-3, 7-Bromo-N-hydroxy-2-oxo-8-(2-(piperazin-1-yl)ethyl)-2H-selenopheno[3,2-h]chromene-3-carboxamide hydrochloride] | – | – | – | – | – | – | – | – | – | – | – | – | – | – | – | – | – | – | – | – | melting point: > 200 °C
8 | O=C(NO)c1cc2ccc3c(Br)c(CCN4CCNCC4)[se]c3c2oc1=O [Compound I-3, 7-Bromo-N-hydroxy-2-oxo-8-(2-(piperazin-1-yl)ethyl)-2H-selenopheno[3,2-h]chromene-3-carboxamide hydrochloride] | 1.13 ± 0.08 | 100 ± 1 | 3.88 ± 0.99 | 99 ± 4 | 0.96 | 100 ± 1 | > 20 | 35 ± 5 | 1.61 ± 0.14 | 100 ± 1 | 6.66 ± 0.85 | 94 ± 2 | 4.95 ± 1.05 | 97 ± 4 | 1.06 ± 0.07 | 99 ± 1 | ne | 0 | ne | 20 ± 3 | –
